# Assay results: patent publication US20250275993A1, “GLYCOSYLATION INHIBITORS AS THERAPEUTICS FOR STROKE” (The Regents of the University of California, priority 2022, published 2025)
# Columns and labels:
# [1] = test system: HUVEC; experiment: HUVEC proliferation assay; type: cell-based, human
# Experimental: Proliferation assays with BCECs and BRECs were performed. Log-phase growing BCECs or BRECs (passage <10) were trypsinized, re-suspended and seeded in 96-well plates (no coating) in low-glucose DMEM supplemented with 10% bovine calf serum, 2 mM glutamine, and antibiotics (growth medium), at a density of 1200-1500 cells per well in 200 μl volume. All reagents were added at the indicated final concentrations. After 3-6 days, cells were incubated with AlamarBlue for 4 hrs. Fluorescence was measured at 530 nm excitation wavelength and 590 nm emission wavelength. The experiments were repeated at least three times. To create a hypoxic condition, cells were placed in a hypoxia incubator with a mixture of gas consisting of 1% O2, 5% CO2 and 94% N2. On each 96-well plate, untreated and VEGF-treated (10/ng/ml) wells were included to monitor plate-to-plate variations. 20% methanol or 0.05% DMSO served as negative controls. […] Human RMVECs and human adult DMVECs were split into Gelatin-coated 96 wells (2000 cells per well) in low glucose DMEM containing 10% FBS. 1200 cells/well was set up for proliferation assay in low glucose media containing 0.5% FBS. Data was collected at day 4 or 5. HUVEC (p7-10) were grown on gelatin-coated plate until it reached 70-80% confluency.
# On the day of the assay, cells were dissociated with 0.05% trypsin, which was neutralized with 0.5% FBS-containing EBM. Cells were briefly spun and then re-suspended in 0.5% FBS-media. Cells were counted and plated in 96-well, 1000 cells/well. Triplicate wells were used for each treatment. Data were collected at day 3, and then cells were fixed in 4% paraformaldehyde for 15 min before adding crystal violet. Cell-covered areas were quantified after taking pictures by Image J software.
# [2] = test system: Calu6; experiment: Calu6 proliferation assay; type: cell-based; conditions: ManN
# Experimental: Proliferation assays with fibroblasts were done in low-glucose DMEM containing 1% FBS, with or without 10 ng/ml bFGF, or 100 ng/ml human EGF and the assay was ended at day 3. ARPE-19 cells were gently lifted with 0.025% trypsin and plated in RtEGM media (Clonetics) containing 2% FBS, L-glutamine, human bFGF and GA-1000. Once cells were attached to plates, serum-free RtEGM media was used to maintain the cultures. For proliferation assays, 1500 human RPE cells were plated into 96-well plates in low-glucose DMEM containing 1% FBS. A673, U87MG, Calu6 and AML12 cells were grown until confluent and were then harvested and re-suspended in appropriate assay media. For proliferation assays, cells were plated at the density of 1000-2000 cells/well in low-glucose DMEM containing 5% FBS or otherwise stated. Bovine pituitary cells (pituitary folliculostellate cells) were isolated as previously described. For proliferation assays with human epidermal keratinocytes, human DMVECs and human dermal fibroblast cells, 1000 cells/well were plated in low-glucose DMEM containing 1% FBS with or without various growth factors. The assay was ended at day 3 for bovine pituitary cells and at day 4 for all the other cell types. […] Four days later, tumor cell growth was measured by the MTS assay (Promega, Madison, WI), a colorimetric assay that measures metabolic activity of viable cells. […]
# [3] = ManN stability in wound fluid from S. aureus infected mice; type: in vitro ADME, mouse; conditions: up to 24 hours at 37° C.
# Experimental: To test ManN stability in wound fluid collected from mice with skin infection as described below, 1.5 μl of 5% ManN solution was added to each 200 μl wound fluid which was first diluted 1:1 (v/v) with PBS. At each time point, samples were taken from 37° C. incubator and stored at −80° C. Plasma proteins were precipitated by adding ice cold acetonitrile to plasma: acetonitrile 1:3 (v/v) ratio. Samples were kept over ice for 1 hr and then centrifuged at 12000 g for 10 min at 7° C. to form a pellet. Supernatants were transferred to other tubed, dried down on a Speed Vac and then reconstituted in UltraPure distilled water and filtered through pre-washed Nanosep 3K Omega filters (Pall Corporation). The filtrate was dried down on Speed Vac. The dry samples were dissolved in 100 μl of water and 2 μl plasma or wound fluid sample was subjected to HPLC analysis. Neutral and amino sugars were separated on a Dionex CarboPac PAI column 4 mm×250 mm with 4 mm×50 mm guard column. An isocratic gradient of 19 mM sodium hydroxide with 0.95 mM sodium acetate was used at a flow rate of 1 ml/min with 20 min run. Data was collected using the Dionex ICS-3000 HPLC system with pulsed amperometric detector using standard Quad waveform. ManN was identified and quantified by comparison with monosaccharide standard using Thermo Scientific Chromeleon software. No ManN samples served as negative controls. […]
# [4] = test system: brain infarction; experiment: Middle cerebral artery occlusion (MCAO) stroke model; type: in vivo, mouse
compound,measurement,setting,value
"N[C@H](C=O)[C@@H](O)[C@H](O)[C@H](O)CO [ManN, 2-Amino-2-deoxy-D-mannose]",toxicity on HUVEC,[1]; 5 mM ManN,minimal toxicity
same,"HUVEC growth, ManN by itself",[1]; ManN alone,stimulated
same,additivity with VEGF on HUVEC proliferation,[1]; with VEGF,dose-dependent additivity with VEGF
same,growth of Calu6,[2],did not promote growth
same,loss of free ManN in wound fluid,[3],No significant loss
same,"histopathological alterations (H&E), Day 4","[4]; 40 mg ManN Day -1, 1, 3",ameliorates histopathological alterations
same,"vascular density (CD31) in cerebral cortex affected by infarct, Day 6","[4]; 40 mg ManN Day -1, 1, 3, 5, p<0.001",significantly increased vascular density
same,"infarction area, Day 4 MRI, first and second experiment","[4]; 40 mg ManN oral gavage Day -1 and every 48 hours, 4 animals per group",markedly smaller infarction area
same,"overall infarction area, combined analysis","[4]; 4 days post-acute ischemic event, FIG. 12D",statistically significant effect of ManN treatment in reducing overall infarction area
same,TTC staining of coronal slices at Day 4,[4]; FIG. 13C,lack of large regions of white staining
same,"CNS infarct volume at Day 4 (MRI), additional animals","[4]; p<0.001 vs vehicle, FIG. 13B",significantly reduced CNS infarct volume
same,infarct area on Day 2 and Day 4 (MRI images),"[4]; vs vehicle (H2O), FIG. 13A",Reduction in infarct area is noticeable
